Data reported in patent US20250186336A1, “METHOD OF TREATING WET AGE-RELATED MACULAR DEGENERATION” (EYEPOINT PHARMACEUTICALS, INC., priority 2022, published 2025).
Read-outs that look alike come from different tables or passages of the source.

Experiments:
[1] = Solubility of vorolanib in water; type: physicochemical
Excerpt: Vorolanib has the chemical designation (S,Z)—N-(1-(Dimethylcarbamoyl) pyrrolidin-3-yl)-5-((5-fluoro-2-oxoindolin-3-ylidene)methyl)-2,4-dimethyl-1H-pyrrole-3-carboxamide. Synonyms include the term “X-82”. The molecular formula is C23H26FN5O3. […]

[2] = Intravitreal pharmacokinetic study of vorolanib insert (Example 5A); type: in vivo, Male Dutch Belted Rabbits; conditions: for vitreous level of vorolanib at steady state: intravitreal; for AUC(0-t): read-out: vitreous AUClast
Method: An Intravitreal Pharmacokinetic Study was performed in Male Dutch Belted Rabbits. The objective of this study was to characterize the plasma and ocular tissue pharmacokinetics of a vorolanib insert following bilateral intravitreal injection on Day 1. Animals were evaluated up to 24 months following placement of the intravitreal insert.
The low dose group (1) received 3 inserts per eye for a total dose of 630 μg per eye. The high dose group (2) animals received 6 inserts per eye given in 2 separate injections (3 inserts per injection) for a total dose of 1,260 μg per eye.
Prior to each scheduled sacrifice point, one whole blood sample was collected from a targeted 2 animals per group via puncture of a marginal ear vein. Samples were tested for levels of vorolanib and its metabolite. Two animals per group were euthanized on day 1 at 6, 12, 24 and 48 hours, on days 7 and 14, and at 1, 2, 4, 6, 8, 16 and 24 months.

[3] = Intravitreal pharmacokinetic study of vorolanib insert (Example 5B); type: in vivo, Dutch Belted Rabbits
Method: Another Intravitreal Pharmacokinetic Study was performed in Dutch Belted Rabbits. The objective of this study was to evaluate the plasma and ocular pharmacokinetics of a vorolanib insert following bilateral intravitreal injection in rabbit eyes. Animals were evaluated up to 12 months following placement of the intravitreal insert.
Dutch Belted rabbits were administered vorolanib inserts in each eye by intravitreal injection. Group 1 eyes received 1 insert containing 643 μg of vorolanib, and Group 2 eyes received 2 inserts containing 900 μg total. Blood samples were collected at 2, 7, 14, and 28 days and then once monthly for months 2-12. Inserts were recovered at 2, 7, and 14 days and then at 1, 2, 4, 6, 8, 10, and 12 months. Residual vorolanib levels were determined in all explants using high-performance liquid chromatography. The vorolanib release rate was estimated based on residual levels in the explants. Plasma and ocular tissues were separated and analyzed for vorolanib and its metabolite using liquid chromatography mass spectrometry.

[4] = 18 month intravitreal toxicity and plasma pharmacokinetics study (Example 6); type: in vivo
Method: An 18 month intravitreal toxicity study for the insert was also performed in 80 Dutch Belted rabbits (40 male and 40 female). Animals were evaluated for a period of 6 and 18 months following placement of intravitreal inserts. The objective was to characterize the ocular toxicity, plasma pharmacokinetics and biodegradation of a vorolanib insert following bilateral intravitreal injection.
The tables below describe the group assignments and dose levels. For the toxicology groups, animals were sacrificed at 6 months and 18 months. For the plasma pharmacokinetic analysis, blood samples were collected at Days 1, 3, and 7 and then 1, 2, 3, 4, 5, 6, 12, 14, 16 and 18 Months.
The placebo group (1) animals received two placebo inserts by injection in each eye. The low dose group (2) animals received 2 inserts in each eye. The mid dose group (3) animals received 3 inserts in each eye given in 2 separate injections. The high dose group (4) animals received 4 inserts in each eye given in 2 separate injections (2 inserts/injection). The highest dose group (5) animals received 6 inserts in each eye given in 2 separate injections (3 inserts/injection).
At each scheduled timepoint, whole blood was collected via puncture of a marginal ear vein. Samples were analyzed for clinical pathology and plasma pharmacokinetics. Animals were euthanized according to the schedules described above. […]

[5] = tested on: Laser-Induced Choroidal Neovascularization (CNV); assay: Swine model of laser-induced choroidal neovascularization, safety and efficacy (Example 7); type: in vivo
Method: Safety and efficacy of a vorolanib insert were evaluated in a Swine (Mini-pig) Model of Laser-Induced Choroidal Neovascularization (CNV). The primary objective of this study was to evaluate the long-term safety and inhibition of vascular permeability and neovascularization in a laser-induced model of choroidal neovascularization (CNV) using a vorolanib insert in swine.
On the day of lasering (Groups 1-4) animals were treated with an 810 nm diode laser delivered through an indirect ophthalmoscope. Approximately 6 single laser spots were placed between retinal veins. Both eyes underwent laser treatment according to the schedule in the table above.
On the day of intravitreal injections animals were anesthetized and the eyes were aseptically prepared. […] Animals were allowed to recover normally from the procedure. The pigs were given a topical drop of antibiotic ophthalmic solution 4-6 hours later, and then BID for 2 additional days with at least 6 hours between doses. Animals were dosed on either Day 0 immediately following laser CNV induction or 7 days prior to laser CNV induction according to the schedule in the table above. […]
At time points indicated by the experimental design table, following final data collections, animals were euthanized. Histology was evaluated for eyes from Groups 5-6.

[6] = male, Dutch Belted, rabbit, vitreous humor, topical or ocular, 630 ug, through day 180
[7] = male, Dutch Belted, rabbit, vitreous humor, topical or ocular, 1260 ug, through day 180

Molecule: Cc1[nH]c(/C=C2\C(=O)Nc3ccc(F)cc32)c(C)c1C(=O)N[C@H]1CCN(C(=O)N(C)C)C1 [vorolanib, (S,Z)—N-(1-(Dimethylcarbamoyl)pyrrolidin-3-yl)-5-((5-fluoro-2-oxoindolin-3-ylidene)methyl)-2,4-dimethyl-1H-pyrrole-3-carboxamide]
- solubility [1]: < 10 µg/mL
- change in plasma levels ([2]; after 99 days): No apparent change
- vorolanib levels in the vitreous and the retina/choroid relative to IC50 for VEGFR ([2]; at the time points tested): remained significantly above the IC50 for VEGFR
- retina/choroid level at steady state ([2]; high dose 1,260 μg per eye): 89 ng/g
- vitreous level of vorolanib at steady state ([2]; high dose 1,260 μg per eye (6 inserts)): 97 ng/mL
- steady state reached by ([2]; in vivo): ≤ 105 days
- burst period of drug release ([2]; in vivo, before steady state): 90 days
- retina/choroid level at steady state ([2]; low dose 630 μg per eye): 49 ng/g
- vitreous level of vorolanib at steady state ([2]; low dose 630 μg per eye (3 inserts)): 56 ng/mL
- Cmax [2, 6]: 232 ng/mL
- Tmax [2, 6]: 14 days
- AUC(0-t) [2, 6]: 316 µg·h/mL
- Cmax [2, 7]: 1700 ng/mL
- AUC(0-t) [2, 7]: 1580 µg·h/mL
- vorolanib plasma levels in the PK study ([2]; plasma): low pg/mL range
- concentration at 10 months ([3]; Dutch Belted, rabbit, in vivo): < 10 ng/mL
- drop in mean vorolanib concentration in ocular tissues and plasma ([3]; Dutch Belted, rabbit, in vivo): 85%-99%
- vorolanib exposure rank order ([3]; ocular tissues and plasma): choroid=retina=vitreous>aqueous humor>plasma
- concentrations in target ocular tissues (choroid and retina) relative to IC50 for VEGFR2 ([3]; through 8 months): above the IC50 for VEGFR2
- vorolanib plasma levels ([4]; plasma): low pg/mL range
- adverse findings ([4]; up to 6 inserts per eye): No adverse findings

Molecule: aflibercept: VEGF inhibitor (Regeneron), intravitreal injection, comparator in the swine CNV model
- reduction in Corrected Total Lesion Fluorescence (CTLF) value ([5]; Day 7 to Day 28, aflibercept 2 mg, 50 μL/eye IVT, Day 0): largest reduction in CTLF values
- efficacy in the model ([5]; aflibercept 2 mg): normal amounts of efficacy
